Source: patent US11440880B2, “Thalidomide analogs and methods of use” (The USA, as represented by the Secretary, Department of …, priority 2015, dated 2022)

Tests used:
Format in all cases: cell-based, mouse
Design in all cases: key: NS=not significant; a “+” sign=anti-inflammatory or increased cell numbers; a “−” sign=cell toxicity or pro-inflammatory
[1] = tested on: TNF-α protein; test: TNF-α protein level (ELISA) in LPS-challenged RAW 264.7 cells; conditions: LPS 30 or 60 ng/mL, 24 h
Protocol: (§1) Nitrite levels in the culture media were measured by use of the Griess Reagent System (Promega, Madison, Wis.), following the manufacturer's protocol. The O.D. of unknown samples was read at 520 nm λ, compared to a sodium nitrite standard curve (1.5 μM to 100 μM) and nitrite measured media concentrations expressed as μM units. As the lowest nitrite concentration on the Griess Reagent System standard curve was 1.5 μM, this was chosen as the effective cutoff for defining measurable nitrite concentrations. TNF-α protein levels were measured by use of an ELISA specific for mouse TNF-α protein (BioLegend, San Diego, Calif.) and are expressed as a % change from their appropriate control or as pg/ml.
(§2) RAW 264.7 cells obtained from ATCC (Manassas, Va., USA) were grown in DMEM media supplemented with 10% FCS, penicillin 100 μg/ml and streptomycin 100 μg/ml, and maintained at 37° C. and 5% CO2. Cells were seeded in 24 well plates and, 24 hours later, were utilized in studies. One hour prior to the initiation of any study, the seeding media was replaced with fresh media (1 mL), and the cells were allowed to equilibrate at 37° C. and 5% CO2.
(§3) RAW 264.7 cells were challenged with LPS (Sigma, St Louis, Mo.: serotype 055:B5) from at a final concentration of 30 or 60 ng/mL. This concentration of LPS in RAW 264.7 cells induces a sub-maximal rise in both TNF-alpha and nitrite levels without a loss in cellular viability. This sub-maximal rise is useful for assessing whether the addition of an experimental drug can either lower or further raise levels of TNF-α and nitrite. Twenty four hours following the addition of LPS, conditioned media was harvested and analyzed for quantification of secreted TNF-α protein and nitrite levels. Fresh media was replaced into the wells and cell viability was then assessed.
(§4) Thalidomide and analogs were prepared in tissue culture grade DMSO (Sigma). RAW 264.7 cells were pretreated with thalidomide, analogues or vehicle one hour prior to a challenge with LPS. The effects of various concentrations of thalidomide analogues were assessed. All compounds were synthesized to a chemical purity of >99.5%, as assessed by chemical characterization by a combination of 1H NMR, 13C NMR and GC/MS analyses (Bruker AC-300 spectrometer, together with elemental analyses (Atlantic Microlab, Inc., Norcross, Ga.).

[2] = tested on: RAW 264.7 cells; test: Cell viability (CellTiter 96 AQueous One) of LPS-challenged RAW 264.7 cells
Protocol: The CellTiter 96® AQueous One Solution Cell Proliferation Assay (Promega, Madison, Wis.) is routinely used as an assay of cell proliferation, and was used according to the manufacturer's recommendations. Changes in cellular health status are determined by use of indirect measures related to the formation of a colored tetrazolium dye product that can be measured spectrophotometrically at 490 nm λ. […] Optical densities (expressed as O.D.s) were measured after various incubations.
as §2, §3, §4

[3] = tested on: nitrite levels in the culture media; test: Nitrite level (Griess Reagent System) in LPS-challenged RAW 264.7 cells; conditions: LPS 30 or 60 ng/mL, 24 h
Protocol: as §1, §2, §3, §4

| Structure (SMILES) | TNF-α ([1]; 3 μM) | TNF-α ([1]; 10 μM) | TNF-α ([1]; 30 μM) | Viability ([2]; 3 μM) | Viability ([2]; 10 μM) | Viability ([2]; 30 μM) | TNF-α ([1]; 1 μM) | Viability ([2]; 1 μM) | Nitrite ([3]; 1 μM) | Nitrite ([3]; 10 μM) | Nitrite ([3]; 30 μM) |
| --- | --- | --- | --- | --- | --- | --- | --- | --- | --- | --- | --- |
| Nc1ccc2c(c1)C(=O)N(C1=CNC(=O)CC1)C2 [Compound 43] | NS | NS | NS | NS | NS | NS |  |  |  |  |  |
| Nc1ccc2c(c1)C(=O)N(C1CC=CNC1=O)C2 (stereo not shown) [Compound 44] | NS | NS | + | NS | NS | NS |  |  |  |  |  |
| O=C1CCCC(=O)N1CN1C(=O)CCC(N2Cc3ccccc3C2=O)C1=O (stereo not shown) [Compound 48] |  | + | + |  | NS | NS | + | NS |  |  |  |
| CC(N1Cc2ccccc2C1=O)C12CC3CC(CC(C3)C1)C2 (stereo not shown) [Compound 71] |  | NS | + |  | NS | − | NS | NS | NS | NS | + |
| S=C1c2ccccc2CN1C12CC3CC(CC1C3)C2 [Compound 75] |  | + | + |  | NS | NS | NS | NS | NS | NS | NS |
| O=C1c2cccc([N+](=O)[O-])c2CN1CC12CC3CC(CC(C3)C1)C2 [Compound 78] |  | + | + |  | NS | − | NS | NS | NS | NS | + |
| Nc1cccc2c1CN(CC13CC4CC(CC(C4)C1)C3)C2=O [Compound 79] |  | NS | NS |  | NS | − | NS | NS | NS | NS | + |
| O=C1c2cccc([N+](=O)[O-])c2CN1C12CC3CC(CC(O)(C3)C1)C2 [Compound 87] |  | NS | NS |  | NS | NS | NS | NS | NS | NS | NS |
| Nc1cccc2c1CN(C13CC4CC(CC(O)(C4)C1)C3)C2=O [Compound 88] |  | NS | NS |  | NS | NS | NS | NS | NS | NS | NS |
| C[C@H]1[C@H](N2Cc3c(cccc3[N+](=O)[O-])C2=O)C[C@@H]2C[C@H]1C2(C)C [Compound 90] |  | + | + |  | NS | NS | + | NS | + | + | + |
| C[C@@H]1[C@@H](N2Cc3c(cccc3[N+](=O)[O-])C2=O)C[C@H]2C[C@@H]1C2(C)C [Compound 92] |  | + | + |  | − | − | NS | NS | + | + | + |
| CC1(C)[C@@H]2CC[C@]1(C)[C@H](N1Cc3c(cccc3[N+](=O)[O-])C1=O)C2 [Compound 94] |  | + | + |  |  | − | NS | NS | + | + | + |
| CC1(C)[C@@H]2CC[C@]1(C)[C@H](N1Cc3c(N)cccc3C1=O)C2 [Compound 95] |  | NS | NS |  | + | + | NS | NS | NS | NS | + |
| CC1(C)[C@@H]2CC[C@]1(C)[C@@H](N1Cc3c(cccc3[N+](=O)[O-])C1=O)C2 [Compound 96] |  | + | + |  | − | NS | NS | − | + | + | + |
| CC1(C)[C@@H]2CC[C@]1(C)[C@@H](N1Cc3c(N)cccc3C1=O)C2 [Compound 97] |  | + | NS |  | NS | NS | NS | NS | NS | NS | + |
| CC1(C)[C@@H]2CC[C@]1(C)[C@@H](N1C=C3C(=CC=C/C3=N\OO)C1=O)C2 [Compound 98] |  | + | + |  | NS | NS | SIG | NS | + | + | + |
| O=C1c2cccc([N+](=O)[O-])c2CN1[C@@H]1C[C@H]2CC[C@@H]1C2 [Compound 99] |  | NS | + |  | − | − | NS | NS | + | + | + |
| Nc1cccc2c1CN([C@@H]1C[C@H]3CC[C@@H]1C3)C2=O [Compound 100] |  | NS | NS |  | NS | NS | NS | NS | NS | NS | NS |
| O=C1c2cccc([N+](=O)[O-])c2CN1[C@H]1C[C@H]2CC[C@@H]1C2 [Compound 101] |  | NS | + |  | − | NS | NS | − | + | + | + |
| Nc1cccc2c1CN([C@H]1C[C@H]3CC[C@@H]1C3)C2=O [Compound 102] |  | NS | NS |  | NS | NS | NS | NS | NS | NS | NS |
| CC1(C)[C@@H]2CC[C@H](CN3Cc4c(cccc4[N+](=O)[O-])C3=O)[C@H]1C2 [Compound 103] |  | + | SIG |  | NS | SIG | NS | NS | + | + | NS |
| CC1(C)[C@@H]2CC[C@H](CN3Cc4c(N)cccc4C3=O)[C@H]1C2 [Compound 104] |  | NS | NS |  | NS | NS | NS | NS | − | − | − |
| c1ccc2c(c1)CN=C2C1=NCc2ccccc21 [Compound 106] | NS | NS | NS | + | + | + |  |  |  |  |  |
| C[C@H]1[C@H](N2C(=O)C3C4C=CC(C4)C3C2=O)C[C@@H]2C[C@H]1C2(C)C (stereo partly shown) [Compound 120] |  | + |  |  | − |  |  |  |  |  |  |
